From patent US4559362A, “Immunopotentiator” (Zaidan Hojin Biseibutsu Kagaku Kenkyu Kai, priority 1982, dated 1985)

Tested on: IMC ascites tumor
Experiment: Concomitant treatment with bleomycin and spermidine on IMC ascites tumor, survival
Type: in vivo, CDF1 mice
Procedure: The pharmacological effects of spermidine will be illustrated by reference to the following experimental examples, in which spermidine was administered as its phosphate dissolved in physiological saline.
(c) 1×10^6 IMC cancer cells were transplanted into CDF1 mice by intraperitoneal injection (Day 0). Bleomycin (5 mg/kg) was administered once daily for 5 consecutive days, and spermidine (5 mg/kg) was administered a total of 10 times on alternative days. The effect of concomitant treatment with spermidine and the anticancer drug was evaluated by considering the number of days that the mice survived.

Question: bleomycin [reference compound] was tested. Which “Survival rate on Day 60” value (bleomycin (5 mg/kg) alone) did it give?
Answer: 0/10

Question: What about the Survival period (bleomycin (5 mg/kg) alone, once daily for 5 consecutive days) of the same substance?
Answer: 31.2 ± 9.4 days

Question: And the “Increase of life span” value (bleomycin (5 mg/kg) alone, control = 100)?
Answer: 176%

Question: What about the “life span increase compared with the control group” value (bleomycin alone) of the same substance?
Answer: 76%
